Reference: patent US20250387410A1, “TREATMENT OF ANTI-VEGF REFRACTORY OPHTHALMIC RETINAL EYE CONDITIONS” (Eye Co Pty Ltd., priority 2022, published 2025)
Several values for one entry are separate records, joined by “and”; a condition that tells them apart may be missing. Equal values may be shown once. Entries after “also recorded” stand apart in the source; their conditions may differ.

Experiments:
[1] = test system: ARPE19 cells; test: MTT assay, cell viability of ARPE19 cells; format: cell-based, human
Source text: The immortalised retinal cells used were as follows: MIO-M1 cells (Muller cell-derived; Müller 1 Moorefields, Institute of Ophthalmology, Dr A. Limb, Institute of Ophthalmology, University College, UK); ARPE19 (RPE-derived; ATCC CRL-2302, American Tissue Culture Collection, VA, USA); and 661W cells (photoreceptor-like derived; kindly gifted by Dr Muayyad R. Al-Ubaidi, Department of Cell Biology, University of Oklahoma Health Sciences Centre, Oklahoma City, OK, USA). Cells were authenticated and validated from Cell Bank Australia.
The immortalised retinal cell lines MIO-M1, 661W and ARPE19 were used to undertake the MTT assay to assess cell metabolic activity, based on the cell's availability of NAPDH. Treatments included exposure to one of FA (10-0.01 μg/μl, provided by Professor Ben Boyd, Monash University, Australia), TA (10-0.01 μg/p, Honeywell, USA) and Dexamethasone (10-0.0001 μg/μl, Sigma-Aldrich, MO, USA). All corticosteroids used in vitro were dissolved in 20% dimethyl sulfoxide (DMSO) (Sigma-Aldrich, MO, USA) and ultrapure endotoxin 0.1M PBS (Thermo Fisher Scientific, MA, USA). At the 12-hour time point following addition of the corticosteroid, 10p of MTT reagent (Roche, Switzerland) was added to each well. To protect against light, plates were wrapped in foil and stored in the dark at 37° C. for 4 hours at 5.0% CO2. Cells were monitored using a bright field Zeiss Axiovert 200 inverted microscope (Carl Zeiss Meditec, Dublin, CA. USA) for formation of insoluble purple formazan precipitate crystals in viable cells. Subsequently 100p of MTT solubilisation solution was added and once again incubated in darkness at 37° C., 5.0% CO2 for 24 hours. Quantification of the MTT assay was performed by measuring the absorbance at 570 nm using Tecan Infinite® 200 PRO (Tecan, Mannedorf, Switzerland).

[2] = test system: subjects with geographic atrophy (GA) secondary to AMD; test: Phase 1b single-dose dose-escalation intravitreal trial in geographic atrophy; format: in vivo, human
Description: To evaluate the safety and tolerability of a single-dose intravitreal (IVT) injection of 1 mg/0.1 mL and 2 mg/0.1 mL Fludrocortisone acetate (FCA) in subjects with geographic atrophy (GA) secondary to Age-Related Macular Degeneration (AMD).
Methods: This was a two-part dose-escalation prospective study. Part-1 involved a single participant treated with 1 mg/0.1 ml and monitored up to 28-days before being reviewed by a safety review committee. Two subsequent participants were then dosed with the same dose. Part-2 involved a single participant dosed with 2 mg/0.1 ml and monitored up to 28-days when a further 5 participants were dosed. All participants were followed up for 6-months after baseline.
A full ophthalmic assessment was performed at study visits which included GA area, best-corrected visual acuity (BCVA), low-luminance BCVA and intra-ocular pressure (IOP). Adverse events (AE) were reported from the first dose of FCA until the end-of-study visit.
This single-centre, phase 1b prospective, open-labeled, single-dose, dose-escalation clinical trial was conducted on 9 participants enrolled at a single site between August 2019 to April 2021. All patients were followed up for 6 months after baseline. Ethics approval was obtained before commencement and the trial was listed on the Australian and New Zealand Clinical Trial Registry (accessible via www.anzctr.org.au; ANZCTR no. 12618001308280). An independent data and safety committee provided oversight of the clinical trial. This study adhered to the tenets of the Declaration of Helsinki. Informed consent was obtained from all participants before enrolment into the study.
Fludrocortisone acetate was formulated for intravitreal administration as a powder solution for injection to ensure long-term stability similar to other cortico-steroids (15). Vials contained 10 mg of FCA powder and were reconstituted with sterile sodium chloride solution (0.9%) according to the appropriate dosage prior to injection.
Inclusion criteria referring the study eye were as follows: diagnosis of GA secondary to AMD confirmed using fundus autofluorescence (FAF) imaging, GA area between ≥1.9 and ≤17 mm2 (1 and 7 disc areas (DA) respectively), best corrected visual acuity (BCVA) of 24 letters or better using Early Treatment Diabetic Retinopathy Study (ETDRS) charts.
A full ophthalmic assessment was performed at each study visit which included GA area assessed through FAF imaging, BCVA, lower-luminance BCVA (LL-BCVA) and intra-ocular pressure (IOP). Participants were assessed at screening, baseline, day 1, day 7, day 14, day 28, day 60, day 90 and day 150 (end of study). Blood and urine samples were collected for safety analysis at screening, baseline, day 7, day 28 and day 150.
Part 1 of the study involved a single participant treated with 1 mg/0.1 ml FCA to assess safety and tolerability. This participant was followed-up for 28 days before the results were reviewed by an independent data safety monitoring committee (DSMB). Subsequent to approval by the DSMB, a further 2 participants were treated with 1 mg/0.1 ml FCA and followed-up for a further 28 days after treatment before commencement of part 2.
Part 2 involved a single dose of 2 mg/0.1 ml of FCA in a single participant and followed-up for 28 days like part 1. The DSMB reviewed the results prior to enrolment of the remaining 5 participants.
Fundus auto-fluorescence was captured using Heidelberg Spectralis (Heidelberg Engineering, Heidelberg, Germany). The assessment of GA size and progression was performed using FAF was performed by 2 graders (T.H and E.C.) in a blinded manner using Heidelberg region finder software version 2.6.2.0 (FIG. 1), a semi-automated program used to quantify atrophic areas. Baseline FAF images were defined and used to assess subsequent visits using the region finder software. In cases where there was a discrepancy of more than 20% between the two graders, a third grader (A.C.) evaluated the images. […]

[3] = fellow (uninjected) eye of treated participants, day 150

CC(=O)OCC(=O)[C@@]1(O)CC[C@H]2[C@@H]3CCC4=CC(=O)CC[C@]4(C)[C@@]3(F)[C@@H](O)C[C@@]21C [FA, 9-α-Fluoro-11 β. 17 α, 21-trihydroxy-4-pregnene-3, 20 dione acetate]
viability of ARPE19 cells at 1 μg/μl ([1]; 1 μg/μl): does not significantly alter cell viability
viability of ARPE-19 cells (MTT assay) ([1]; 10-0.01 μg/μl, 12 h, compared to DMSO-only group): do not induce toxicity; also recorded: no significant effect
loss of BCVA letters in the initial pilot participant ([2]; 1 mg/ml, day 14, one participant, deemed most likely unrelated by the DSMB): 22 letters
adverse event in one participant ([2]; 2 mg/ml, after day 90, study eye, resolved after 1 week): nasal subconjunctival haemorrhage
other adverse events throughout the study ([2]; all 9 participants): No other adverse events
systemic adverse event ([2]; dose escalation study, 9 participants): no systemic adverse event
BCVA mean change from baseline, fellow eye [2, 3]: 4.88 ± 8.37 letters
IOP mean change from baseline, fellow eye [2, 3]: −0.625 ± 4.24 mmHg
LLVA mean change from baseline, fellow eye [2, 3]: 4.5 ± 11.49 letters
GA area mean change from baseline, fellow eye ([2]; fellow (uninjected) eye of treated participants, over 6 months, listed as FCA): 0.62 mm^2 and 0.62 ± 4.49 mm^2
clinical safety and tolerability ([2]; intravitreal, patients with GA secondary to AMD): clinically safe and well-tolerated
serious AEs (ocular or systemic) ([2]; single IVT 1 mg/0.1 ml or 2 mg/0.1 ml, 9 participants, 6 months): no serious AEs
cataract development / lens opacity ([2]; single IVT 1 or 2 mg/0.1 ml, 6 months follow-up, no formal lens grading, listed as FCA): no participants required/underwent cataract surgery; also recorded: not observed; also recorded: no evidence
increase of IOP ([2]; single IVT 1 or 2 mg/0.1 ml, study eye, 6 months follow-up, listed as FCA): No significant increases; also recorded: not observed; also recorded: did not increase; also recorded: no evidence
IOP mean change from baseline, study eye ([2]; study eye, day 150 compared to baseline, listed as FCA): −0.25 mmHg and −0.25 ± 4.06 mmHg
GA area mean change from baseline, study eye ([2]; study eye, over 6 months, FAF region finder, listed as FCA): 0.5 mm^2 and 0.5 ± 5.69 mm^2
changes in body temperature, heart rate, systolic or diastolic blood pressure ([2]; throughout the study): no significant changes
